According to the OligoGym collection:
These antisense oligonucleotides have a phosphorothioate backbone; sugars and methylation of C are not fully specified.

These sequences were tested against TERF1. Settings: ASO.
Also: test concentration or dose not given here.

| Sequence | remaining target (mRNA or protein) (fraction of control) |
| --- | --- |
| AAACACAATCAGTCTTCGCT | 0.93 |
| AAGCTTTTACAAACACAATC | ≥ 1 |
| AATCAGTCTTCGCTGTCTGA | ≥ 1 |
| ACAAACACAATCAGTCTTCG | ≥ 1 |
| ACAATCAGTCTTCGCTGTCT | 0.57 |
| ACACAATCAGTCTTCGCTGT | 0.64 |
| ACTGGCAAGCTGTTAGACTG | 0.49 |
| AGGTTTATCTTGAGAAGTTA | ≥ 1 |
| AGTCTTCGCTGTCTGAGGAA | 0.59 |
| ATATTAAATGAAGGTATCAG | ≥ 1 |
| CAAACAAAATGCAGTGATCA | 0.84 |
| CACAGTCCCCAGTAGGTAAG | 0.56 |
| CATCCTCCGCCATGTTAAAT | 0.73 |
| CCAAATCATCAGGGCTGATT | ≥ 1 |
| CTCGGAGCGGCCGTCGCGGA | 0.9 |
| CTCGGCCACCAGGCCCGCGT | 0.82 |
| CTGAGGAAACATCCTCCGCC | 0.68 |
| CTTTCTGAGAGATTATCAT | 0.93 |
| GAAACCCCGCCTCTACTAAA | 0.74 |
| GACATCAAGATGATCATAGT | ≥ 1 |

| Sequence | remaining target (mRNA or protein) (fraction of control) |
| --- | --- |
| GAGGTTCAGTGAGCTGAAAT | 0.81 |
| GCAGGGTTCAACAAATTTAC | 0.75 |
| GCCATGTTAAATGGCTCGAT | 0.61 |
| GCCATTTTCCATACAAACAG | 0.81 |
| GCTTTTACAAACACAATCAG | 0.73 |
| GGCAGGTTTGTTAGCTGAGT | ≥ 1 |
| GGCTGACTCTTTGAAACAGG | 0.6 |
| GGGTTACGTTACAGGGTTGA | ≥ 1 |
| TAAGAAAAGATTCTTGTGAG | 0.71 |
| TAGGCATCAGGTTATAAAGA | 0.73 |
| TCAGTCTTCGCTGTCTGAGG | 0.46 |
| TCTGCTCCTCAGTAGGGTCG | 0.68 |
| TTAAACACTGGAACAAAAGT | ≥ 1 |
| TTAACTCTGGTAGCACAAAC | 0.59 |
| TTACAAACACAATCAGTCTT | 0.77 |
| TTACTCTGTACATTTATCAT | ≥ 1 |
| TTTAGACCAGTTTCCCTCTC | 0.68 |
| TTTAGGCAGGACGCAGTGGC | 0.47 |
| TTTGTCCCATGGGTAATACT | 0.97 |
| TTTTACAAACACAATCAGTC | 0.77 |

What follows are sequences tested against RHOB. Settings: ASO.

| Sequence | remaining target (mRNA or protein) (fraction of control) |
| --- | --- |
| AACTCGTCCTTACTGAAC | 0.7 |
| AAGCACATGAGAATGACG | ≥ 1 |
| ACCTCGCGCACGCCTTCC | ≥ 1 |
| ACGGGTTCCTGCTTCATG | ≥ 1 |
| ACTGAACACGATCAGCAG | ≥ 1 |
| AGACCTCGCGCACGCCTT | 0.84 |
| AGCACCTTGCAGCAGTTG | ≥ 1 |
| ATGTTCTCCAGCGAGTCC | ≥ 1 |
| CAGCAGTTGATGCAGCCG | 0.69 |
| CATAGTTCTCGAAGACGG | ≥ 1 |
| CCACCACCAGCTTCTTGC | ≥ 1 |
| CCAGCTCTGTGCGGACAT | 0.79 |
| CCGTCCACCTCAATGTCG | ≥ 1 |
| CCGTCGCCCACCACCACC | ≥ 1 |
| CCTTACTGAACACGATCA | ≥ 1 |
| CGAAGACCTCGCGCACGC | ≥ 1 |
| CGAGGTAGTCGTAGGCTT | 0.61 |
| CGGACATGCTCGTCGCTG | ≥ 1 |
| CGGGCCAGCTCTGTGCGG | 0.62 |
| CGTGGCCGTCTCGAAGAC | ≥ 1 |
| CTCGAAGACCTCGCGCAC | ≥ 1 |
| CTCGTCCTTACTGAACAC | 0.99 |

What follows are sequences tested against PTPN6. Settings: ASO.

| Sequence | remaining target (mRNA or protein) (fraction of control) |
| --- | --- |
| AGGCTCTCACGCACAAGAAA | 0.66 |
| ATGTGGCCATGGTACCACCT | ≥ 1 |
| CAAACTCTCAAACTCCTCCC | 0.88 |
| CAGCATCTCTCTGTAGGGAG | 0.81 |
| CCACCCACGGGACAGCATCT | ≥ 1 |
| CCACCTGAGGACAGCACCGC | 0.84 |
| CCACGGGACAGCATCTCTCT | ≥ 1 |
| CCCTGACGGAGAGCGAGAAG | ≥ 1 |
| CGACTCCTGGCCCTTCTGCG | 0.61 |
| CGCATTTGTTCCGGCCTTTC | 0.69 |
| CGCTCACTTCCTCTTGAGGG | 0.69 |
| CGTGAGGCTGTCGAAGGTCT | 0.9 |
| CTCTTGAGGGAACCCTTGCT | 0.49 |
| GAAACCACCCACGGGACAGC | ≥ 1 |
| GACAGCATCTCTCTGTAGGG | 0.78 |
| GACCCCATGGTCGGGCCAGC | ≥ 1 |
| GAGGACAGCACCGCTCACTT | 0.88 |
| GATGAACTTGTACTGCGCCT | 0.84 |

| Sequence | remaining target (mRNA or protein) (fraction of control) |
| --- | --- |
| GATGTCAATGTCACAGTCCA | 0.73 |
| GCATCTCTCTGTAGGGAGGG | 0.96 |
| GCCACGCCATCTGCCAGAAG | 0.7 |
| GCCAGGTGAGGAAGAACCGC | ≥ 1 |
| GCCTGGGCCAGCCTTGGGCT | ≥ 1 |
| GCGCCTGAGGCCTCCTCAAT | 0.84 |
| GGCCTGGCTGGGCTATATAC | ≥ 1 |
| GGGACAGCATCTCTCTGTAG | ≥ 1 |
| GGGAGAATGTTCTTGTAGCG | ≥ 1 |
| GTGCAGGTTCTCATACACAT | 0.64 |
| TCAGAGTCGCAAACTTCTCC | ≥ 1 |
| TCAGCCGCATTCACCCTCGT | 0.54 |
| TCATGCTCCCCGCAGTTGGT | 0.4 |
| TCTCATCAGGGCCTAGCAGC | 0.74 |
| TGAGTCTGTCCATCGCGAAA | 0.63 |
| TGCCGGCGCTGCAGTGCACG | 0.85 |
| TGGTGCCGTCGCGGTCCTGC | 0.29 |
| TTCAGTGATCCCAGGGCTTT | 0.75 |
